#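 Cultured in 96-well plates, cells were exposed to test compound for 48 hours across five concentrations. The concentration for full growth arrest is given as TGI.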
# Tests used:
# Test in all cases: NCI tumour cell line growth inhibition, 48 h
# [1] = system: IGROV1 ovarian
# [2] = system: SK-MEL-2 melanoma
# [3] = system: UO-31 renal
# [4] = system: K-562 leukemia
# [5] = system: DU-145 prostate
# [6] = system: DLD-1 colon
# [7] = system: KM12 colon
# [8] = system: UACC-62 melanoma
# [9] = system: EKVX NSCLC
# [10] = system: CAKI-1 renal
# [11] = system: SNB-75 CNS
# [12] = system: ACHN renal
# [13] = system: HL-60(TB) leukemia
# [14] = system: HOP-18 NSCLC
# [15] = system: HCT-15 colon
# [16] = system: MOLT-4 leukemia
# [17] = system: TK-10 renal
# [18] = system: SK-MEL-5 melanoma
# [19] = system: OVCAR-5 ovarian
# [20] = system: RXF 393 renal
# [21] = system: NCI-H226 lung
# [22] = system: NCI/ADR-RES ovarian
# [23] = system: NCI-H522 lung
# [24] = system: HT29 colon
# [25] = system: SK-OV-3 ovarian
# [26] = system: SF-539 CNS
# [27] = system: KM20L2 colon
# [28] = system: SF-295 CNS
# [29] = system: COLO 205 colon
# [30] = system: OVCAR-3 ovarian
# [31] = system: HOP-92 NSCLC
# [32] = system: HOP-62 NSCLC
# [33] = system: SR leukemia
# [34] = system: MALME-3M melanoma
# [35] = system: A498 renal
# [36] = system: HCC-2998 colon
# [37] = system: SN12C renal
# [38] = system: CCRF-CEM leukemia
# [39] = system: 786-0 renal
# [40] = system: DMS 114 small cell lung
# [41] = system: SK-MEL-28 melanoma
# [42] = system: M14 melanoma
# [43] = system: DMS 273 small cell lung
# [44] = system: OVCAR-8 ovarian
# [45] = system: UACC-257 melanoma
# [46] = system: A549 NSCLC
# [47] = system: M19-MEL melanoma
# [48] = system: SF-268 CNS
# [49] = system: SW-620 colon
# [50] = system: HCT-116 colon
# [51] = system: NCI-H460 lung
# [52] = system: SNB-19 CNS
# [53] = system: OVCAR-4 ovarian
# [54] = system: NCI-H23 lung
# [55] = system: RPMI-8226 leukemia
# [56] = system: LOX IMVI melanoma
# [57] = system: SNB-78 CNS
# [58] = system: U251 CNS
# [59] = system: XF 498 CNS
# [60] = system: LXFL 529 NSCLC
compound,measurement,setting,value
CCCCC(=O)OC[n+]1ccc2c(C)c3[nH]c4ccccc4c3c(C)c2c1,TGI,[1],6.23 µM
same,TGI,[2],11.5 µM
same,TGI,[3],3.69 µM
same,TGI,[4],1.63 µM
same,TGI,[5],2.73 µM
same,TGI,[6],1.64 µM
same,TGI,[7],2 µM
same,TGI,[8],1.72 µM
same,TGI,[9],3.04 µM
same,TGI,[10],4.56 µM
same,TGI,[11],2.59 µM
same,TGI,[12],1.81 µM
same,TGI,[13],2.93 µM
same,TGI,[14],9.74 µM
same,TGI,[15],1.59 µM
same,TGI,[16],3.01 µM
same,TGI,[17],5.01 µM
same,TGI,[18],2.84 µM
same,TGI,[19],1.82 µM
same,TGI,[20],2.52 µM
same,TGI,[21],2.06 µM
same,TGI,[22],2.93 µM
same,TGI,[23],2.33 µM
same,TGI,[24],2.44 µM
same,TGI,[25],2.64 µM
same,TGI,[26],2 µM
same,TGI,[27],2.79 µM
same,TGI,[28],1.97 µM
same,TGI,[29],2.22 µM
same,TGI,[30],2.54 µM
same,TGI,[31],6.44 µM
same,TGI,[32],2.05 µM
same,TGI,[33],2.31 µM
same,TGI,[34],2.98 µM
same,TGI,[35],2.62 µM
same,TGI,[36],0.978 µM
same,TGI,[37],2 µM
same,TGI,[38],4.08 µM
same,TGI,[39],1.62 µM
COc1cc(/C=C2\C(=O)N(C(=O)c3ccc(NC(C)=O)cc3)N=C2C)ccc1O,TGI,[40],> 100 µM
same,TGI,[3],> 100 µM
same,TGI,[41],> 100 µM
same,TGI,[42],> 100 µM
same,TGI,[4],> 100 µM
same,TGI,[6],> 100 µM
same,TGI,[43],> 100 µM
same,TGI,[44],> 100 µM
same,TGI,[7],> 100 µM
same,TGI,[45],> 100 µM
same,TGI,[46],> 100 µM
same,TGI,[9],> 100 µM
same,TGI,[10],> 100 µM
same,TGI,[11],> 100 µM
same,TGI,[47],> 100 µM
same,TGI,[12],> 100 µM
same,TGI,[13],> 100 µM
same,TGI,[14],> 100 µM
same,TGI,[48],> 100 µM
same,TGI,[16],> 100 µM
same,TGI,[17],> 100 µM
same,TGI,[18],> 100 µM
same,TGI,[19],> 100 µM
same,TGI,[49],> 100 µM
same,TGI,[50],> 100 µM
same,TGI,[21],> 100 µM
same,TGI,[51],> 100 µM
same,TGI,[23],> 100 µM
same,TGI,[52],> 100 µM
same,TGI,[53],> 100 µM
same,TGI,[24],> 100 µM
same,TGI,[26],> 100 µM
same,TGI,[28],> 100 µM
same,TGI,[29],> 100 µM
same,TGI,[54],> 100 µM
same,TGI,[30],> 100 µM
same,TGI,[55],> 100 µM
same,TGI,[32],> 100 µM
same,TGI,[33],> 100 µM
same,TGI,[34],> 100 µM
same,TGI,[36],> 100 µM
same,TGI,[37],> 100 µM
same,TGI,[38],> 100 µM
same,TGI,[56],> 100 µM
same,TGI,[57],> 100 µM
same,TGI,[39],> 100 µM
CC(=O)c1cccc(NC(=O)C(=O)Nn2c(N)nnc2N)c1,TGI,[40],> 100 µM
same,TGI,[1],> 100 µM
same,TGI,[2],> 100 µM
same,TGI,[3],> 100 µM
same,TGI,[41],> 100 µM
same,TGI,[42],> 100 µM
same,TGI,[58],> 100 µM
same,TGI,[4],> 100 µM
same,TGI,[6],> 100 µM
same,TGI,[43],> 100 µM
same,TGI,[44],> 100 µM
same,TGI,[7],> 100 µM
same,TGI,[8],> 100 µM
same,TGI,[45],> 100 µM
same,TGI,[46],> 100 µM
same,TGI,[9],> 100 µM
same,TGI,[10],> 100 µM
same,TGI,[11],> 100 µM
same,TGI,[47],> 100 µM
same,TGI,[12],> 100 µM
same,TGI,[13],> 100 µM
same,TGI,[14],> 100 µM
same,TGI,[15],> 100 µM
same,TGI,[48],> 100 µM
same,TGI,[16],> 100 µM
same,TGI,[59],> 100 µM
same,TGI,[60],> 100 µM
same,TGI,[17],> 100 µM
same,TGI,[18],> 100 µM
same,TGI,[19],> 100 µM
same,TGI,[49],> 100 µM
same,TGI,[50],> 100 µM
same,TGI,[20],> 100 µM
same,TGI,[21],> 100 µM
same,TGI,[51],> 100 µM
same,TGI,[23],> 100 µM
same,TGI,[52],> 100 µM
same,TGI,[53],> 100 µM
same,TGI,[24],> 100 µM
same,TGI,[25],> 100 µM
same,TGI,[26],> 100 µM
same,TGI,[27],> 100 µM
same,TGI,[28],> 100 µM
same,TGI,[29],> 100 µM
same,TGI,[54],> 100 µM
same,TGI,[55],> 100 µM
same,TGI,[31],> 100 µM
same,TGI,[32],> 100 µM
same,TGI,[33],> 100 µM
same,TGI,[34],> 100 µM
same,TGI,[35],> 100 µM
same,TGI,[36],> 100 µM
same,TGI,[37],> 100 µM
same,TGI,[38],> 100 µM
same,TGI,[56],> 100 µM
same,TGI,[57],> 100 µM
same,TGI,[39],> 100 µM
COc1ccc(OC)c(CC(C)N)c1 (centres undefined),TGI,[40],> 100 µM
same,TGI,[1],> 100 µM
same,TGI,[2],> 100 µM
same,TGI,[3],> 100 µM
same,TGI,[41],> 100 µM
same,TGI,[42],> 100 µM
same,TGI,[58],> 100 µM
same,TGI,[4],> 100 µM
same,TGI,[6],> 100 µM
same,TGI,[44],> 100 µM
same,TGI,[7],> 100 µM
same,TGI,[8],> 100 µM
same,TGI,[45],> 100 µM
same,TGI,[46],> 100 µM
same,TGI,[9],> 100 µM
same,TGI,[10],> 100 µM
same,TGI,[11],> 100 µM
same,TGI,[47],> 100 µM
same,TGI,[12],> 100 µM
same,TGI,[14],> 100 µM
same,TGI,[15],> 100 µM
same,TGI,[48],> 100 µM
same,TGI,[16],> 100 µM
same,TGI,[59],> 100 µM
same,TGI,[60],> 100 µM
same,TGI,[17],> 100 µM
same,TGI,[18],> 100 µM
same,TGI,[49],> 100 µM
same,TGI,[50],> 100 µM
same,TGI,[20],> 100 µM
same,TGI,[21],> 100 µM
same,TGI,[51],> 100 µM
same,TGI,[23],> 100 µM
same,TGI,[52],> 100 µM
same,TGI,[53],> 100 µM
same,TGI,[24],> 100 µM
same,TGI,[25],> 100 µM
same,TGI,[26],> 100 µM
same,TGI,[27],> 100 µM
same,TGI,[28],> 100 µM
same,TGI,[29],> 100 µM
same,TGI,[54],> 100 µM
same,TGI,[30],> 100 µM
same,TGI,[55],> 100 µM
same,TGI,[32],> 100 µM
same,TGI,[34],> 100 µM
same,TGI,[35],> 100 µM
same,TGI,[36],> 100 µM
same,TGI,[37],> 100 µM
same,TGI,[38],> 100 µM
same,TGI,[56],> 100 µM
same,TGI,[39],> 100 µM
